# Results taken from publication PMC11869560, “Anticancer and cancer preventive activities of shogaol and curcumin from Zingiberaceae family plants in KG-1a leukemic stem cells” (BMC Complementary Medicine and Therapies, 2025).
# Experiments:
# [1] = system: TNF-α production in LPS-activated RAW264.7 cells; experiment: TNF-α production in LPS-activated RAW264.7 cells (ELISA); assay type: cell-based, mouse; conditions: IC20 concentration, 2 h pre-treatment then 1 µg/mL LPS 24 h
# Description: (§1) For the measurement of tumor necrosis factor-alpha (TNF-α) and NO, RAW264.7 cells were pre-treated with plant extracts and active compounds at a non-cytotoxic dose (IC20) (Table S9) or 1 µg/mL of dexamethasone (positive control) in a 24-well plate for 2 h. Subsequently, 1 µg/mL of lipopolysaccharide (LPS) (Cat No. 00497693, Invitrogen™, MA, USA) was added to each well, and the cells were incubated for an additional 24 h to allow sufficient time for the compounds to exert measurable anti-inflammatory effects while maintaining cell viability. Afterward, supernatants were collected, and the levels of TNF-α and NO were measured using the Mouse TNF alpha Uncoated ELISA Kit (Invitrogen™, ThermoFisher Scientific, MA, USA) and the Total Nitric Oxide Assay Kit (Invitrogen™, ThermoFisher Scientific, MA, USA), respectively, according to the manufacturer’s instructions.
# (§2) The percentage of NO or cytokine inhibitions were calculated using the following equation: […]
# (§3) where A is the level of cytokine or NO without treatment, and B is the level of cytokine or NO with treatment.
# [2] = system: NO production in LPS-activated RAW264.7 cells; experiment: NO production in LPS-activated RAW264.7 cells; assay type: cell-based, mouse; conditions: IC20 concentration, 2 h pre-treatment then 1 µg/mL LPS 24 h
# Description: as §1, §2, §3
structure (smiles),measurement,setting,value
"CCCCC/C=C/C(=O)CCc1ccc(O)c(OC)c1 [Shogaol, shogaol]",inhibition of TNF-α release,[1],24.41 ± 0.99%
same,inhibition of NO release,[2],46.46 ± 3.71%
